# Data reported in ChEMBL document CHEMBL4819069, “Discovery of multifunctional anti-Alzheimer's agents with a unique mechanism of action including inhibition of the enzyme butyrylcholinesterase and γ-aminobutyric acid transporters” (Eur J Med Chem, 2021).
# Calls of active or inactive are those of the source. The rule behind the calls is not given here.
# Experiments:
# [1] = target: Amyloid-beta precursor protein (Homo sapiens) (UniProt P05067); assay: Inhibition of HFIP-pretreated amyloid beta (1 to 42) (unknown origin) aggregation at 10 uM after 36 to 48 hrs by thioflavin-T fluorescence assay relative to control; details: time 36-48 hrs
# [2] = target: T1, GABA transporter 4 (Mus musculus, UniProt P31650); assay: Inhibition of mouse GAT4 expressed in HEK293 cell line assessed as reduction in [3H]GABA uptake incubated for 10 mins; format: cell-based
# T1 sequence (P31650 whole entry): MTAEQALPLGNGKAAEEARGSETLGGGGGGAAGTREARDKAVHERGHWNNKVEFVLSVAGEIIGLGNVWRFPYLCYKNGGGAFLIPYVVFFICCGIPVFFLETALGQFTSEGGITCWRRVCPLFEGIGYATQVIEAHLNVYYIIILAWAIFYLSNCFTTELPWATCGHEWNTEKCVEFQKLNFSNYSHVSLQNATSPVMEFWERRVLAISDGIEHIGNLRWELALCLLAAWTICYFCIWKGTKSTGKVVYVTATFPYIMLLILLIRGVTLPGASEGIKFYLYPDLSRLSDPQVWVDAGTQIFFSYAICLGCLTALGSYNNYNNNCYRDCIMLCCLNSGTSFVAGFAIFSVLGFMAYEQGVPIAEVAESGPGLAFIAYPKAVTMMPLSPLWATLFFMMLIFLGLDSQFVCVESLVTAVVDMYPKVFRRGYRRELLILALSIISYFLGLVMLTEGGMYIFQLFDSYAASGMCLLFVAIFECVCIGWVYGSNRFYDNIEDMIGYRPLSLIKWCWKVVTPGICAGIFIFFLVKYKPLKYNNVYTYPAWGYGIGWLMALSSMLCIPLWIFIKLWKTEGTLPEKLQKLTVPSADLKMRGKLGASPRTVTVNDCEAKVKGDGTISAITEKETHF
# [3] = target: Microtubule-associated protein tau (Homo sapiens) (UniProt P10636); assay: Inhibition of tau aggregation (unknown origin) at 10 uM after 72 hrs by thioflavin-T fluorometric assay relative to control
# [4] = Neurotoxicity against mouse HT22 cells assessed as cell viability at 10 uM incubated for 24 hrs by MTT assay; format: cell-based, HT-22; details: for Activity: ht-22, 24 h, 10 µM
# [5] = target: Cholinesterase (Equus caballus, UniProt P81908)
# Description: Inhibition of equine serum BuChE using butyrylthiocholine as substrate preincubated for 5 mins followed by substrate addition and measured after 5 mins by Ellman's method
# [6] = target: T2, Sodium- and chloride-dependent GABA transporter 1 (Mus musculus, UniProt P31648); assay: Inhibition of NO711 binding to mouse GAT1 expressed in HEK cell membranes incubated for 40 mins in presence of NO711 by LC-ESI-MS/MS analysis; design: species or system Membrane
# [7] = target: Acetylcholinesterase (Electrophorus electricus) (UniProt O42275); assay: Inhibition of electric eel AChE at 10 uM using acetylthiocholine as substrate preincubated for 5 mins followed by substrate addition and measured after 5 mins by Ellman's method relative to control; details: time 10.0 min
# [8] = target: T3, Beta-secretase 1 (Homo sapiens, UniProt P56817); details: dose 50.0 µM, time 60.0 min
# [9] = target: T4, Cholinesterase (Homo sapiens, UniProt P06276)
# Description: Inhibition of human BuchE using butyrylthiocholine as substrate preincubated for 5 mins followed by substrate addition and measured after 5 mins by Ellman's method
# [10] = target: T2, Sodium- and chloride-dependent GABA transporter 1; assay: Inhibition of mouse GAT1 expressed in HEK293 cell line assessed as reduction in [3H]GABA uptake incubated for 10 mins; format: cell-based
# [11] = target: Cytochrome P450 2D6 (Homo sapiens, UniProt P10635); assay: Inhibition of CYP2D6 (unknown origin) at 10 uM; format: ADME
# [12] = Hepatotoxicity in human HepG2 cells at 1 uM incubated for 72 hrs by MTS assay; format: cell-based; details: hepg2, 72 h
# [13] = target: Cytochrome P450 3A4 (Homo sapiens, UniProt P08684); assay: Inhibition of CYP3A4 (unknown origin) at 10 uM; format: ADME
# [14] = target: T3, Beta-secretase 1
# [15] = Hepatotoxicity in human HepG2 cells at 50 to 100 uM incubated for 72 hrs by MTS assay; format: cell-based; details: hepg2, 72 h, dose 50-100 µM
# [16] = Metabolic stability in human liver microsomes assessed as parent compound remaining after 120 mins in presence of NADPH regeneration system by UPLC/MS anlaysis; format: ADME, Microsome; details: read-out: Stabilty
# [17] = target: T5, GABA transporter 3 (Mus musculus) (UniProt P31649); assay: Inhibition of mouse GAT2 expressed in HEK293 cell line assessed as reduction in [3H]GABA uptake at 100 uM incubated for 10 mins relative to control; format: cell-based
# T5 sequence (whole entry): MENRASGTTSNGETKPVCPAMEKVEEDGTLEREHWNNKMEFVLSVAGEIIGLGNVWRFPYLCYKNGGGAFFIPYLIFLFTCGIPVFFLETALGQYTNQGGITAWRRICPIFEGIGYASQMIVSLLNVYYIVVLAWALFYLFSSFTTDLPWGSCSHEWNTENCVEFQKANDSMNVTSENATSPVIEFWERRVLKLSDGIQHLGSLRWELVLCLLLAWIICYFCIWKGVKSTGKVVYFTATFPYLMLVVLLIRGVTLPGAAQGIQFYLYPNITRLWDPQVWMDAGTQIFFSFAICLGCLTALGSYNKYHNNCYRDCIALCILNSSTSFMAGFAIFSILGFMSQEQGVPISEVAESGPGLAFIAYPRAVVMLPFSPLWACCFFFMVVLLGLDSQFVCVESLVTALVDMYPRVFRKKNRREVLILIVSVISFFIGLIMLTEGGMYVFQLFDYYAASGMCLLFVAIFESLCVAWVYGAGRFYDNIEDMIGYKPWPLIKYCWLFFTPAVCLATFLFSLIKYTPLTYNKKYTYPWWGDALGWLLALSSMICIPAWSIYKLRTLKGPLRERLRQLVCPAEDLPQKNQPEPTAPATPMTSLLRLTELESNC
# [18] = target: T6, GABA transporter 4 (Mus musculus) (UniProt P31650); assay: Inhibition of mouse GAT4 expressed in HEK293 cell line assessed as reduction in [3H]GABA uptake at 100 uM incubated for 10 mins relative to control; format: cell-based
# T6 sequence (whole entry): T1 sequence (P31650 whole entry)
# [19] = target: T4, Cholinesterase; assay: Inhibition of human BuchE at 1 uM using butyrylthiocholine as substrate preincubated for 5 mins followed by substrate addition and measured after 5 mins by Ellman's method relative to control; details: time 10.0 min
# [20] = target: T6, GABA transporter 4 (Mus musculus); assay: Inhibition of mouse GAT3 expressed in HEK293 cell line assessed as reduction in [3H]GABA uptake at 100 uM incubated for 10 mins relative to control; format: cell-based
# [21] = Neurotoxicity against mouse HT22 cells assessed as cell viability at 30 uM incubated for 24 hrs by MTT assay; format: cell-based, HT-22; details: for Activity: ht-22, 24 h, 30 µM
# [22] = target: Sodium- and chloride-dependent GABA transporter 1 (Mus musculus) (UniProt P31648); assay: Inhibition of NO711 binding to mouse GAT1 expressed in HEK cell membranes at 100 uM incubated for 40 mins in presence of NO711 by LC-ESI-MS/MS analysis relative to control; details: Membrane
# [23] = target: Sodium- and chloride-dependent GABA transporter 1 (Mus musculus) (UniProt P31648); assay: Inhibition of mouse GAT1 expressed in HEK293 cell line assessed as reduction in [3H]GABA uptake at 100 uM incubated for 10 mins relative to control; format: cell-based
# [24] = target: Cholinesterase (Equus caballus) (UniProt P81908); assay: Noncompetitive inhibition of equine serum BuChE assessed as decrease in Vmax with constant Km using varying concentrations of BTC as substrate by Lineweaver-burk and Cornish-Bowden plot analysis
# [25] = target: Acetylcholinesterase (Electrophorus electricus, UniProt O42275); assay: Inhibition of electric eel AChE using acetylthiocholine as substrate preincubated for 5 mins followed by substrate addition and measured after 5 mins by Ellman's method
# [26] = target: T7, Sodium- and chloride-dependent GABA transporter 3 (Homo sapiens, UniProt P48066); assay: Inhibition of human GAT3 expressed in COS-7 cells assessed as reduction in [2H6]GABA uptake preincubated for 25 mins followed by [2H6]GABA addition and measured after 6 mins by LC-MS/MS analysis; format: cell-based
# T7 sequence (P48066 whole entry): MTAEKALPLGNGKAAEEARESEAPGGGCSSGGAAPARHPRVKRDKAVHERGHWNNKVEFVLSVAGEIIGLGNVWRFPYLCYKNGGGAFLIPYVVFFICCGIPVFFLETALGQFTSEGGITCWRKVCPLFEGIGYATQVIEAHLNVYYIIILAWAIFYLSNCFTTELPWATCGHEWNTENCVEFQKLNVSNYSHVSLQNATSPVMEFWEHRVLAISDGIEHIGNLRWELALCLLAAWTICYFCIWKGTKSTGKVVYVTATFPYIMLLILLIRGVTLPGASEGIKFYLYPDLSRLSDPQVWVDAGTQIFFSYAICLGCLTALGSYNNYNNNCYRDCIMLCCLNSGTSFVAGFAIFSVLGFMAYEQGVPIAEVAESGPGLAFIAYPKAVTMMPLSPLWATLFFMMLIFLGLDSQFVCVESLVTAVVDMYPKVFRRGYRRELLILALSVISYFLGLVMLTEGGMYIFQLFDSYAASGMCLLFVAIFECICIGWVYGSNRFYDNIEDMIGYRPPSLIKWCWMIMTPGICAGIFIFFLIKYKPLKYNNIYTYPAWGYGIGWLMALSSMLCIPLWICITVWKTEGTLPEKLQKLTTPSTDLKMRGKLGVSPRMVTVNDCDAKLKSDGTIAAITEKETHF
# T4 sequence (P06276 whole entry): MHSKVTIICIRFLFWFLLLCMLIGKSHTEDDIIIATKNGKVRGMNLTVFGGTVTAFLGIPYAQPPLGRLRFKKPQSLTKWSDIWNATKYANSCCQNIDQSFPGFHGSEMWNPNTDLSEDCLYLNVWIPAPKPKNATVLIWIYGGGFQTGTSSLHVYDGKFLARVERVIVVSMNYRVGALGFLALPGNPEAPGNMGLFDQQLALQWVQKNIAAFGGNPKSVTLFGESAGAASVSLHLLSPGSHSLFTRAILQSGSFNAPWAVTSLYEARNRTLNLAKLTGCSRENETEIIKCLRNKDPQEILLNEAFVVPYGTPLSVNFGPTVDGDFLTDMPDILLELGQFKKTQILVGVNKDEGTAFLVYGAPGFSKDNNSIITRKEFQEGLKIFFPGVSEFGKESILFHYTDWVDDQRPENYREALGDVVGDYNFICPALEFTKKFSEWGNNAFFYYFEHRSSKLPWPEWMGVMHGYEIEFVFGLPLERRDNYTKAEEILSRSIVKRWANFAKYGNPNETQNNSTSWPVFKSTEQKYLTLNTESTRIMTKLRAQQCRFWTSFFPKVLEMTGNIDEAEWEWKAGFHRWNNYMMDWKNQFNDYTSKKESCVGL
# Chain of Amyloid-beta precursor protein (Homo sapiens) (P05067 whole entry): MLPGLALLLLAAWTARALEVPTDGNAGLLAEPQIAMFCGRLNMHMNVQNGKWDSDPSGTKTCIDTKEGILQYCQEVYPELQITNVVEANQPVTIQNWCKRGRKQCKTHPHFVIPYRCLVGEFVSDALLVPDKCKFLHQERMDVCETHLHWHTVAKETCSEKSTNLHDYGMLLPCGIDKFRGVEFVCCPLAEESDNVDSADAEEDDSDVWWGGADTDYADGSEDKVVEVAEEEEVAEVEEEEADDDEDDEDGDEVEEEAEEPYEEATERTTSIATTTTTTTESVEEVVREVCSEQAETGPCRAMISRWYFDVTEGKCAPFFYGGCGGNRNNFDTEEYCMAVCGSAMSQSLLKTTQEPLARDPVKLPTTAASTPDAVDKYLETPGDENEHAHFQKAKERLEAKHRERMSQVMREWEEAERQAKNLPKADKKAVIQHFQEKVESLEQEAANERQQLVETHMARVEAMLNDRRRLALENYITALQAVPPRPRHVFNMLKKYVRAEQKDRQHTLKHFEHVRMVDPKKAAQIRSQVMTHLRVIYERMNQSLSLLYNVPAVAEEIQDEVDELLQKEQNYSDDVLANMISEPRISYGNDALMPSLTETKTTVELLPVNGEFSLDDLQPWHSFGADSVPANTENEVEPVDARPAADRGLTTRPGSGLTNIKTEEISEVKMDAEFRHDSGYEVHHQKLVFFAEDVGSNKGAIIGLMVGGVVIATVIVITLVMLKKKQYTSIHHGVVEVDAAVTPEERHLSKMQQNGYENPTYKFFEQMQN
# Chain of Cholinesterase (Equus caballus, UniProt P81908) (P81908 whole entry): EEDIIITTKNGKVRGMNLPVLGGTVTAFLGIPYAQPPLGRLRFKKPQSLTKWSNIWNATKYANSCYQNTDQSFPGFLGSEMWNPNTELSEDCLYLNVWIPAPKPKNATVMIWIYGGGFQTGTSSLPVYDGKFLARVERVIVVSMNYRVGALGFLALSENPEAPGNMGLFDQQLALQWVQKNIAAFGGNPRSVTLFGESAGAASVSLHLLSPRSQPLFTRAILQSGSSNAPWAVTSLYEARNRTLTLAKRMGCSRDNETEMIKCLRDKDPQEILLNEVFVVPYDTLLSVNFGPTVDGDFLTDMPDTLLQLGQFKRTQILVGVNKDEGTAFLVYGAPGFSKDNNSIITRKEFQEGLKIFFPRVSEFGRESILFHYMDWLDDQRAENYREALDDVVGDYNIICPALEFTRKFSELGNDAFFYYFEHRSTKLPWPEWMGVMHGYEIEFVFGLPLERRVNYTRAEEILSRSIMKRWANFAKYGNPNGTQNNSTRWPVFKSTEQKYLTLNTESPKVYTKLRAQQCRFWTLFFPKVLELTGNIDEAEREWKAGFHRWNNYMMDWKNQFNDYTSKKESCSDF
# Chain of Acetylcholinesterase (Electrophorus electricus) (O42275 24-633 limits assumed): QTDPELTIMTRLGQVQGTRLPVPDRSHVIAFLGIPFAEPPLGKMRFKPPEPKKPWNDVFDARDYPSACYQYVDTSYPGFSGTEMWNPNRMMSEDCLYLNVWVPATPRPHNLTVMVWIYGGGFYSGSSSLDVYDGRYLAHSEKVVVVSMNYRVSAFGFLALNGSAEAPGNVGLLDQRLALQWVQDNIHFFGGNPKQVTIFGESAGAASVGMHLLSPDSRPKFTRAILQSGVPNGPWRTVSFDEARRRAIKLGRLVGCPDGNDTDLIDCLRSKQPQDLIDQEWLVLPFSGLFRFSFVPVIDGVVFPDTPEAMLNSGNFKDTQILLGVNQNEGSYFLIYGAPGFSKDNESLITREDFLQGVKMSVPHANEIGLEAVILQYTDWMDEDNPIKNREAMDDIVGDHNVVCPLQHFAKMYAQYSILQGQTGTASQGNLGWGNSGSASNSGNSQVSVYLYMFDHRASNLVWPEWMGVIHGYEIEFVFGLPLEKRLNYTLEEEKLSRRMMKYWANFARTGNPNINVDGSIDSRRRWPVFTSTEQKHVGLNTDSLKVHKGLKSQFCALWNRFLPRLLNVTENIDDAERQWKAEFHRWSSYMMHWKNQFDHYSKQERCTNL
# T3 sequence (P56817 whole entry): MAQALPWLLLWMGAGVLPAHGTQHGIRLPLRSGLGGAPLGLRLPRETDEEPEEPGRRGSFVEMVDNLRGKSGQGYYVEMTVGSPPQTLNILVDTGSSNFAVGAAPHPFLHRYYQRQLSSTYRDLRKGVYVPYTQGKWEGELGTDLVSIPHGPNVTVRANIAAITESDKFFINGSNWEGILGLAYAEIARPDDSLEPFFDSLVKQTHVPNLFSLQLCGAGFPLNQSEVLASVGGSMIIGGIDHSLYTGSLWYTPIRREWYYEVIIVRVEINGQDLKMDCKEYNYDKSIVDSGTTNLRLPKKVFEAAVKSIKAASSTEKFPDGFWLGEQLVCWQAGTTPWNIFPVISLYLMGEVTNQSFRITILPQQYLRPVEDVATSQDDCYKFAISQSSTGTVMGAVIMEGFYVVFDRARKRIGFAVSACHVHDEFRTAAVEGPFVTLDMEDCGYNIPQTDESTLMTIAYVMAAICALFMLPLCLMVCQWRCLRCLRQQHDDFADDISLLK
# Chain of Microtubule-associated protein tau (Homo sapiens) (P10636 whole entry): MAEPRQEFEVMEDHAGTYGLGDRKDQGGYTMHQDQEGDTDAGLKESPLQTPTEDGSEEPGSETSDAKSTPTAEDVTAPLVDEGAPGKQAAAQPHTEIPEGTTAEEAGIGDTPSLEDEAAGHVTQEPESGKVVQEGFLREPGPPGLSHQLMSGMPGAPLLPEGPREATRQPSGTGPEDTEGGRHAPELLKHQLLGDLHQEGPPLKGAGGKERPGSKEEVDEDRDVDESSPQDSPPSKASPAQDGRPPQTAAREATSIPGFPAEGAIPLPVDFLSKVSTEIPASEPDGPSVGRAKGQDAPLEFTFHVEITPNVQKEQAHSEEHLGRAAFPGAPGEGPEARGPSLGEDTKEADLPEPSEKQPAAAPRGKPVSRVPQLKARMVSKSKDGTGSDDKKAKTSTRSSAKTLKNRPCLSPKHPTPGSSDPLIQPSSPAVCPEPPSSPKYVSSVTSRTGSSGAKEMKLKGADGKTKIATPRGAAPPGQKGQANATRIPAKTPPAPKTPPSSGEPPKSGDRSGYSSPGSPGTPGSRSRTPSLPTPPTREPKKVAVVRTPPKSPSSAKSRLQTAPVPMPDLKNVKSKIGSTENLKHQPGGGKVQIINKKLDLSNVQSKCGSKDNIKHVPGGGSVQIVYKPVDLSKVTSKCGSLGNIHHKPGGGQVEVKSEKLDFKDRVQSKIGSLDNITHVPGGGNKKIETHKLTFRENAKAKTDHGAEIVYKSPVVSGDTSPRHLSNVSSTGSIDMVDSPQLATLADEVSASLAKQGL
SMILES,inhibition [1],Activity [4],IC50 [5],IC50 [6],inhibition [7],inhibition [8],IC50 [9],IC50 [10],IC50 [14],also measured
O[C@@H](CNCc1ccccc1)[C@H](Cc1ccccc1)NCCC(c1ccccc1)c1ccccc1,34.7%,Toxic,650 nM,30.2 µM,< 10%,58%,630 nM,7.59 µM,–,IC50 [2]: 5.5 µM; inhibition [3]: 85.8%
CC(C)c1cccc(CNC[C@@H](O)[C@H](Cc2ccccc2)NC(=O)CC(c2ccccc2)c2ccccc2)c1,20.5%,–,650 nM,–,24%,–,500 nM,–,4.6 µM,inhibition (INH) [11]: Active; Activity [12]: Non-Toxic; inhibition (INH) [13]: Active; Activity [15]: Toxic; remaining at 2 h [16]: 67.9%
CC(C)(C)CNC[C@@H](O)[C@H](Cc1ccccc1)NCC(c1ccccc1)c1ccccc1,34.7%,–,590 nM,85.1 µM,< 10%,63.9%,190 nM,26.3 µM,–,IC50 [2]: 9.77 µM
C[C@H](NC[C@@H](O)[C@H](Cc1ccccc1)NC(=O)CC(c1ccccc1)c1ccccc1)c1ccccc1,20.5%,–,8860 nM,–,< 10%,74.1%,–,–,–,"inhibition [17]: 51%; inhibition [3]: 73.1%; inhibition [18]: 55%; viability at 24 h, 10 µM ([4]; HT22 cells, read-out: Activity): 100%; inhibition [19]: 36.4%; inhibition [20]: 69%; viability at 24 h, 30 µM ([21]; HT22 cells, read-out: Activity): 50%; inhibition [22]: 66%; inhibition [23]: 59%"
"CC(C)(C)c1ccc(CNCC(O)[C@H](Cc2ccccc2)NC(=O)CC(c2ccccc2)c2ccccc2)cc1 (single isomer, unassigned)",20.5%,Non-Toxic,170 nM,–,< 10%,–,880 nM,–,6.2 µM,Activity [21]: Toxic
CC(C)(C)c1cccc(CNC[C@@H](O)[C@H](Cc2ccccc2)NC(=O)C(c2ccccc2)c2ccccc2)c1,20.5%,Non-Toxic,60 nM,–,–,–,20 nM,11 µM,5.9 µM,inhibition (INH) [11]: Active; Activity [12]: Non-Toxic; inhibition [18]: 55%; inhibition (INH) [13]: Active; inhibition [24]: Active; IC50 [25]: 2.86 µM; inhibition [20]: 55%; Activity [15]: Toxic; Activity [21]: Toxic; remaining at 2 h [16]: 79.6%; inhibition [22]: 82%
CC(C)c1cccc(CNC[C@@H](O)[C@H](Cc2ccccc2)NC(=O)C(c2ccccc2)c2ccccc2)c1,20.5%,–,500 nM,–,–,66%,80 nM,–,–,IC50 [25]: 5.13 µM
COc1ccc(C(/C=C/CN2CCC[C@H](C(=O)O)C2)(c2ccc(OC)cc2)c2ccc(OC)cc2)cc1,–,–,–,46.8 µM,–,–,–,–,–,IC50 [26]: 1590 nM
COc1ccc(C(OCCN2CCC[C@H](C(=O)O)C2)(c2ccc(OC)cc2)c2ccc(OC)cc2C)cc1,–,–,–,–,–,–,–,–,–,IC50 [26]: 3160 nM
